Test results published in patent publication US10604514B2, “6-(5-membered heteroaryl)isoquinolin-3-yl carboxamides and preparation and use thereof” (Samumed, LLC, priority 2017, dated 2020).
Like-named read-outs stand apart in the source and are kept apart here.

Legend:
[1] = test system: Wnt activity (Sp5-Luc reporter in SW480 colon carcinoma cells); assay: Wnt activity screening assay (Sp5-Luc reporter gene assay); type: cell-based, human; conditions: for EC50: Sp5-Luc reporter, SW480 cells, 36 to 48 hours; for inhibition at 10 µM: SW480, read-out: percent inhibition at 10 μM
Summary of the method: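 SW480 cells stably carrying an Sp5 promoter (eight TCF/LEF sites)-firefly luciferase reporter were plated in DMEM with 1% FBS and treated with a 10-point, 1:3 dilution series from 10 μM (0.1% DMSO) for 36 to 48 h at 37° C. Luminescence was normalized to DMSO controls, and EC50 came from four-parameter nonlinear regression.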

GSK3β kinase = GSK3β kinase (Homo sapiens (Human), UniProt P49841); assay: GSK3β kinase assay (Ser/Thr 09 peptide Z-lyte, FRET); type: biochemical; conditions: method text calls the value IC50;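 further: Coumarin/fluorescein emission ratio converted to percent phosphorylation against unphosphorylated (0%) and phosphorylated (100%) controls, 1 h compound incubation at room temperature, 11-point threefold dilutions from 10 µM, run in duplicate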
[2] = test system: Tau phosphorylation at Ser396 (pSer396), SH-SY5Y cells; assay: Tau phosphorylation at Ser396 (pSer396) in SH-SY5Y cells, ELISA/western blot; type: cell-based, human; conditions: SH-SY5Y cells, overnight (16-18 h), read-out: pSer396 Tau EC50;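 further: cell lysates probed for reduced Tau pSer396 via ELISA (colorimetric) or western blot (chemiluminescence), both with one shared pSer396 antibody, EC50 for lowering phosphorylation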
Procedure: Two days before treatment, cells were seeded onto 96 well plates at 5×10^4 cells/well.
Wells were visually checked for cell death or change in morphology and supernatants were tested for cytotoxicity by measurement of lactate dehydrogenase release (LDH, CytoToxOne kit, Promega) if necessary.
Cells were lysed with RIPA buffer complemented with phosphatase and protease inhibitors then lysates were spun down at 12,000 g for 10 min to remove any cellular debris. Lysates are then either directly tested for pSer396 by ELISA (Life Technology, Kit KHB7031) or loaded on NuPage Bis-Tris gels for western blot analysis. Colorimetric detection of ELISA signal is performed by Cytation3 plate reader (Biotek) and the chemiluminescence signal for HRP-linked antibodies used in western blotting is detected using a Carestream Image Station. The same pSer396 antibody is used for detection of pTau in both assays.

[3] = test system: SW480 colon carcinoma cells; assay: Cell viability assay (CellTiter-Glo) in SW480 cells; type: cell-based, human; conditions: for EC50: cell viability, SW480 cells, four days, CellTiter-Glo; for inhibition at 10 µM: SW480, read-out: percent inhibition at 10 μM;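 on all read-outs here: SW480 cells stably carrying an Sp5-luciferase TCF/LEF reporter, luminescent ATP signal as viability measure, DMSO-treated cells as control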
Procedure: Representative compounds were screened using the assay procedure to assess the effect on cell viability as described below.
SW480 colon carcinoma cells were transduced with a lentiviral vector expressing luciferase with a human Sp5 promoter consisting of a sequence of eight TCF/LEF binding sites. SW480 cells stably expressing the Sp5-Luc reporter gene and a hygromycin resistance gene were selected by treatment with 150 μg/mL of hygromycin for 7 days. These stably transduced SW480 cells were expanded in cell culture and used for all further screening activities. Each compound was dissolved in DMSO as a 10 mM stock and used to prepare compound source plates.
For the Cell Viability Assays, the cells were plated at 2,000 cells/well in 384-well plates with a DMEM medium containing 1% fetal bovine serum, and 1% Penicillin-Streptomycin and incubated for four days hours at 37° C. and 5% CO2. Eight replicates of DMSO-treated cells served as controls and cells treated with compound were performed in duplicate.
After incubation, 10 μL of CellTiter-Glo (Promega) was added to each well allowed to incubate for approximately 12 minutes.
Dose-response curves were generated and EC50 concentration values were calculated using non-linear regression curve fit in the GraphPad Prism (San Diego, Calif.) or Dotmatics' Studies Software (Bishops Stortford, UK).

[4] = test system: LL29 cells (primary human fibroblasts derived from IPF patients), α-smooth muscle actin; assay: Inhibition of fibrotic process: αSMA in TGF-β1-treated primary human fibroblasts from IPF patients (LL29 cells); type: cell-based; conditions: for EC50: % αSMA-positive LL29 cells, TGF-β1 20 ng/mL, 4 days
Summary of the method: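 IPF-patient lung fibroblasts (LL29) were stimulated with TGF-β1 (20 ng/mL) in 1% FBS medium with compound (11-point 1:2 series, 0.1% DMSO) for 4 days at 37 °C. Fixed cells were immunostained for αSMA and imaged, excluding SYTOX-positive dead cells. The % αSMA-positive cells was normalized to TGF-β1/DMSO control wells.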

IL-6 = IL-6 inhibition in LPS-stimulated human peripheral blood mononuclear cells (HTRF); type: cell-based; conditions: for inhibition at 10 µM: read-out: percent value in parentheses below EC50 >10; for EC50: IL-6, LPS-stimulated huPBMCs, HTRF
Summary of the method: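 Fresh human PBMCs (5000 cells/well, 1% FBS RPMI) preincubated with compound (10-point 1:3 series from 10 μM, 0.25% DMSO) 2 h at 37 °C, then stimulated with 50 ng/mL E. coli LPS for 22 h. IL-6 by HTRF 665/620 ratio; DMSO-normalized, EC50 from 4-parameter fit.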

DYRK1A kinase = DYRK1A kinase (Homo sapiens (Human), UniProt Q13627); assay: DYRK1A kinase assay (Ser/Thr 18 peptide Z-lyte, FRET)
Procedure: Each compound was dissolved in DMSO as a 10 mM stock and used to prepare compound source plates.
This is a non-radioactive assay using fluorescence resonance energy transfer (FRET) between coumarin and fluorescein to detect kinase activity which is represented as a ratio of coumarin emission/fluorescein emission.
The mixture was allowed to incubate with the representative compounds for one hour at room temperature. All reactions were performed in duplicate. Unphosphorylated (“0% Control”) and phosphorylated (“100% control”) forms of Ser/Thr 18 served as control reactions. Additionally, an 11-point dose-response curve of Staurosporine (1 uM top) was run to serve as a positive compound control.
After incubation, Development Reagent A was diluted in Development Buffer then added to the reaction and allowed to further incubate for one hour at room temperature.
The percent phosphorylation was then calculated using the following formula: [1−((Em ratio×F100%)−C100%)/((C0%−C100%)+(Em ratio×(F100%−F0%)))]. Dose-response curves were generated and inhibitory concentration (IC50) values were calculated using non-linear regression curve fit in the Dotmatics' Studies Software (Bishops Stortford, UK).

[5] = DYRK1A kinase, method text calls the value IC50

Chain of GSK3β kinase (P49841 whole entry): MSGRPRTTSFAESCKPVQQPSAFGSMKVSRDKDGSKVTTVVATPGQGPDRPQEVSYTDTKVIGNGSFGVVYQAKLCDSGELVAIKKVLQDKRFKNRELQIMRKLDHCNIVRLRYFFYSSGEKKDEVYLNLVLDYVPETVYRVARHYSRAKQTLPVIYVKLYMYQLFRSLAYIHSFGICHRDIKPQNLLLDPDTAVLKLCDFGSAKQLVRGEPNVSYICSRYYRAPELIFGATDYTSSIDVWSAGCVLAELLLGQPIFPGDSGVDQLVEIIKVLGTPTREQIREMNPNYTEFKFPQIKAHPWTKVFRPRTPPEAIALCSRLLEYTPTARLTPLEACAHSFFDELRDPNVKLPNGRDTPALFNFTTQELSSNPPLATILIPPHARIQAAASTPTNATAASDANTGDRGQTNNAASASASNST

Compound	EC50 ([1]; Homo sapiens)	EC50 (GSK3β kinase)	EC50 ([2]; Homo sapiens)	EC50 ([3]; Homo sapiens, 96 h)	EC50 ([4]; Homo sapiens, Fibroblast, 96 h)	inhibition at 10 µM (IL-6; Homo sapiens, PBMC)	EC50 (IL-6; Homo sapiens, PBMC)	EC50 (DYRK1A kinase; [5])	EC50 [1]	EC50 [2]	EC50 [3]	EC50 [4]	EC50 (IL-6)	inhibition at 10 µM ([1]; Homo sapiens)	inhibition at 10 µM ([3]; Homo sapiens)	EC50 (DYRK1A kinase)	inhibition at 10 µM ([4]; Homo sapiens, Fibroblast, read-out: percent inhibition at 10 μM)
Cn1cc(-c2ccc3cnc(NC(=O)N4CCOCC4)cc3c2)nn1 [Compound 60, N-(6-(1-Methyl-1H-1,2,3-triazol-4-yl)isoquinolin-3-yl)morpholine-4-carboxamide]	671 nM	73 nM	1100 nM	4060 nM	4860 nM	5.7%	> 10 µM	7 nM	–	–	–	–	–	–	–	–	–
trans-N-(6-(2-methyloxazol-5-yl)isoquinolin-3-yl)-4-((propan-2-yl-1,1,1,3,3,3-d6)amino)cyclohexane-1-carboxamide [Compound 141]	–	50 nM	–	–	–	–	–	9 nM	2780 nM	594 nM	1570 nM	321 nM	0.388 µM	–	–	–	–
Cc1nnc(-c2ccc3cnc(NC(=O)N4CCC(N5CCOCC5)CC4)cc3c2)s1 [Compound 128, N-(6-(5-Methyl-1,3,4-thiadiazol-2-yl)isoquinolin-3-yl)-4-morpholinopiperidine-1-carboxamide]	3180 nM	25 nM	491 nM	4370 nM	6630 nM	8%	> 10 µM	16 nM	–	–	–	–	–	–	–	–	–
Cc1nnc(-c2ccc3cnc(NC(=O)CN4CCOCC4)cc3c2)n1C [Compound 15, N-(6-(4,5-Dimethyl-4H-1,2,4-triazol-3-yl)isoquinolin-3-yl)-2-morpholinoacetamide]	> 10000 nM	59 nM	981 nM	> 10000 nM	896 nM	15.8%	> 10 µM	61 nM	–	–	–	–	–	40.1%	38%	–	–
Cc1nnc(-c2ccc3cnc(NC(=O)C4CCN(C)CC4)cc3c2)s1 [Compound 46, 1-Methyl-N-(6-(5-methyl-1,3,4-thiadiazol-2-yl)isoquinolin-3-yl)piperidine-4-carboxamide]	730 nM	23 nM	91 nM	1040 nM	640 nM	–	3.76 µM	–	–	–	–	–	–	–	–	6 nM	–
Cc1nnc(-c2ccc3cnc(NC(=O)N4CCC(N(C)C)CC4)cc3c2)s1 [Compound 31, 4-(Dimethylamino)-N-(6-(5-methyl-1,3,4-thiadiazol-2-yl)isoquinolin-3-yl) piperidine-1-carboxamide]	2060 nM	117 nM	386 nM	3800 nM	3710 nM	19.8%	> 10 µM	24 nM	–	–	–	–	–	–	–	–	–
[2H]C([2H])([2H])Oc1ccc(C(=O)Nc2cc3cc(-c4cnc(C)n4C)ccc3cn2)cc1 [Compound 164, N-(6-(1,2-Dimethyl-1H-imidazol-5-yl)isoquinolin-3-yl)-4-(methoxy-d3) benzamide]	638 nM	4580 nM	> 10000 nM	782 nM	1480 nM	–	3.39 µM	–	–	–	–	–	–	–	–	11 nM	–
[2H]C1([2H])OC([2H])([2H])C([2H])([2H])N(CC(=O)Nc2cc3cc(-c4cnc(C)o4)ccc3cn2)C1([2H])[2H] [Compound 40, N-(6-(2-Methyloxazol-5-yl)isoquinolin-3-yl)-2-(morpholino-d8)acetamide]	> 10000 nM	120 nM	688 nM	> 10000 nM	3710 nM	–	9.7 µM	–	–	–	–	–	–	29.6%	27%	29 nM	–
Cn1cc(-c2cc(F)c3cnc(NC(=O)[C@H]4CC[C@H](N(C)C)CC4)cc3c2)nn1 [Compound 10, trans-4-(Dimethylamino)-N-(8-fluoro-6-(1-methyl-1H-1,2,3-triazol-4-yl)isoquinolin-3-yl)cyclohexane-1-carboxamide]	923 nM	18 nM	119 nM	719 nM	208 nM	–	9.22 µM	4 nM	–	–	–	–	–	–	–	–	–
Cc1nnc(-c2ccc3cnc(NC(=O)C4CCN(CCC(F)(F)F)CC4)cc3c2)s1 [Compound 38, N-(6-(5-Methyl-1,3,4-thiadiazol-2-yl)isoquinolin-3-yl)-1-(3,3,3-trifluoropropyl)piperidine-4-carboxamide]	743 nM	9 nM	67 nM	1080 nM	112 nM	3.2%	> 10 µM	6 nM	–	–	–	–	–	–	–	–	–
[2H]c1c([2H])c(C(=O)Nc2cc3cc(-c4cncn4C)ccc3cn2)c([2H])c([2H])c1C [Compound 85, 4-Methyl-N-(6-(1-methyl-1H-imidazol-5-yl)isoquinolin-3-yl)benzamide-2,3,5,6-d4]	233 nM	847 nM	1400 nM	487 nM	557 nM	–	1.22 µM	–	–	–	–	–	–	–	–	2 nM	–
[2H]C([2H])([2H])[N+]1([O-])CCN(c2cc(C(=O)Nc3cc4cc(-c5cn(C)nn5)ccc4cn3)ccn2)CC1 [Compound 226, 1-(Methyl-d3)-4-(4-((6-(1-methyl-1H-1,2,3-triazol-4-yl)isoquinolin-3-yl)carbamoyl)pyridin-2-yl)piperazine 1-oxide]	> 10000 nM	1190 nM	> 10000 nM	> 10000 nM	> 10000 nM	4.5%	> 10 µM	–	–	–	–	–	–	31.6%	46.9%	4 nM	33.2%
Cn1cc(-c2ccc3cnc(NC(=O)[C@H]4CC[C@H](N5CCCC5)CC4)cc3c2)nn1 [Compound 99, trans-N-(6-(1-Methyl-1H-1,2,3-triazol-4-yl)isoquinolin-3-yl)-4-(pyrrolidin-1-yl)cyclohexane-1-carboxamide]	589 nM	8 nM	208 nM	1080 nM	72 nM	–	1.36 µM	4 nM	–	–	–	–	–	–	–	–	–
Cn1cc(-c2ccc3cnc(NC(=O)N4CCOCC4)cc3c2)cn1 [Compound 64, N-(6-(1-Methyl-1H-pyrazol-4-yl)isoquinolin-3-yl)morpholine-4-carboxamide]	434 nM	530 nM	2900 nM	3530 nM	683 nM	–	4.63 µM	8 nM	–	–	–	–	–	–	–	–	–
[2H]c1c(NC(=O)CN2CCOCC2)ncc2ccc(-c3nnc(C)s3)cc12 [Compound 135, N-(6-(5-Methyl-1,3,4-thiadiazol-2-yl)isoquinolin-3-yl-4-d)-2-morpholinoacetamide]	5690 nM	22 nM	365 nM	> 10000 nM	2140 nM	0%	> 10 µM	–	–	–	–	–	–	–	27.8%	41 nM	–
